Literature values as cited in patent US11986533B2, “Macromonomers and bottle brush polymers for delivery of biological agents” (Regents of the University of Minnesota, priority 2021, dated 2024).

In the case of O=C1NC(=O)C(c2ccccc2)(c2ccccc2)N1 [phenytoin], the “log P” value is listed as 2.14.
